Results from PubChem BioAssay (NCI).
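How tested: cells in 96-well plates exposed to compound for 48 hours at five concentrations. GI50 marks 50% less growth. The concentration for full growth arrest is given as TGI.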

Key:
Assay in all cases: NCI anticancer screen, dose series, 48 h
SF-539 CNS = tested on: SF-539 CNS
HL-60(TB) leukemia = tested on: HL-60(TB) leukemia
T-47D breast = tested on: T-47D breast
SF-295 CNS = tested on: SF-295 CNS
DU-145 prostate = tested on: DU-145 prostate
OVCAR-3 ovarian = tested on: OVCAR-3 ovarian
ACHN renal = tested on: ACHN renal
K-562 leukemia = tested on: K-562 leukemia
SK-MEL-28 melanoma = tested on: SK-MEL-28 melanoma
SF-268 CNS = tested on: SF-268 CNS
A498 renal = tested on: A498 renal
M14 melanoma = tested on: M14 melanoma
HCT-15 colon = tested on: HCT-15 colon
HCT-116 colon = tested on: HCT-116 colon
UACC-257 melanoma = tested on: UACC-257 melanoma
LOX IMVI melanoma = tested on: LOX IMVI melanoma
HS 578T breast = tested on: HS 578T breast
CAKI-1 renal = tested on: CAKI-1 renal
MALME-3M melanoma = tested on: MALME-3M melanoma
TK-10 renal = tested on: TK-10 renal
NCI-H226 lung = tested on: NCI-H226 lung
PC-3 prostate = tested on: PC-3 prostate
SNB-19 CNS = tested on: SNB-19 CNS
MCF7 breast = tested on: MCF7 breast
UACC-62 melanoma = tested on: UACC-62 melanoma
SR leukemia = tested on: SR leukemia
MDA-MB-231 breast = tested on: MDA-MB-231 breast
NCI/ADR-RES ovarian = tested on: NCI/ADR-RES ovarian
U251 CNS = tested on: U251 CNS

`CCOC(=O)c1c(CN2CCCCC2)nc2ccc(Cl)cc2c1-c1ccccc1` showed a GI50 (SF-539 CNS) of 26.7 µM, a TGI (SF-539 CNS) of 66.2 µM and a GI50 (HL-60(TB) leukemia) of 18.1 µM. It also gave a TGI (HL-60(TB) leukemia) of 43.4 µM, a GI50 (T-47D breast) of 17.1 µM and a TGI (T-47D breast) of 49.1 µM. It also gave a GI50 (SF-295 CNS) of 31.5 µM, a TGI (SF-295 CNS) of 88 µM and a GI50 (DU-145 prostate) of 32.5 µM. The TGI (DU-145 prostate) was over 100 µM, the GI50 (OVCAR-3 ovarian) was 17.7 µM and the TGI (OVCAR-3 ovarian) was 38.1 µM. For the same compound, the GI50 (ACHN renal) was 16.9 µM, the TGI (ACHN renal) was 35 µM and the GI50 (K-562 leukemia) was 25.6 µM. The TGI (K-562 leukemia) was 92.7 µM, the GI50 (SK-MEL-28 melanoma) was 30.4 µM and the TGI (SK-MEL-28 melanoma) was 88.3 µM. The GI50 (SF-268 CNS) was 23.2 µM, the TGI (SF-268 CNS) was 55.3 µM and the GI50 (A498 renal) was 18.3 µM. The TGI (A498 renal) was 37.7 µM, the GI50 (M14 melanoma) was 24.6 µM and the TGI (M14 melanoma) was 72.7 µM. The GI50 (HCT-15 colon) was 21.4 µM, the TGI (HCT-15 colon) was 47.9 µM and the GI50 (HCT-116 colon) was 15.6 µM. The TGI (HCT-116 colon) was 37 µM, the GI50 (UACC-257 melanoma) was 22.4 µM and the TGI (UACC-257 melanoma) was 56.5 µM. For the same compound, the GI50 (LOX IMVI melanoma) was 20 µM, the TGI (LOX IMVI melanoma) was 44.2 µM and the GI50 (HS 578T breast) was 27.1 µM. For the same compound, the TGI (HS 578T breast) was 75.1 µM, the GI50 (CAKI-1 renal) was 24.7 µM and the TGI (CAKI-1 renal) was 72.3 µM. It also gave a GI50 (MALME-3M melanoma) of 25.1 µM, a TGI (MALME-3M melanoma) of 61.9 µM and a GI50 (TK-10 renal) of 42.7 µM. For the same compound, the TGI (TK-10 renal) was over 100 µM, the GI50 (NCI-H226 lung) was 20.7 µM and the TGI (NCI-H226 lung) was 40.4 µM. The GI50 (PC-3 prostate) was 23.8 µM, the TGI (PC-3 prostate) was 93.7 µM and the GI50 (SNB-19 CNS) was 21.8 µM. The TGI (SNB-19 CNS) was 48.4 µM, the GI50 (MCF7 breast) was 18.6 µM and the TGI (MCF7 breast) was 41.2 µM. The GI50 (UACC-62 melanoma) was 17.2 µM, the TGI (UACC-62 melanoma) was 38.1 µM and the GI50 (SR leukemia) was 15.7 µM. It also gave a TGI (SR leukemia) of 43.4 µM, a GI50 (MDA-MB-231 breast) of 15.9 µM and a TGI (MDA-MB-231 breast) of 35 µM. For the same compound, the GI50 (NCI/ADR-RES ovarian) was 19.6 µM, the TGI (NCI/ADR-RES ovarian) was 58.2 µM and the GI50 (U251 CNS) was 20.3 µM. For the same compound, the TGI (U251 CNS) was 41.2 µM.
